Assay [1] has as its target T1, KPC-2 β-lactamase D179Y variant (Klebsiella pneumoniae, UniProt Q93LQ9, D178Y). The class given is binding.
Assay [2] concerns the target T2, KPC-2 β-lactamase D179N variant (Klebsiella pneumoniae, UniProt Q93LQ9, D178N). In words: time-based mass spectrometry ([…]). The class given is binding.
Assay [3] addresses KPC-2 β-lactamase (Klebsiella pneumoniae, UniProt Q93LQ9). In words: stopped-flow hydrolysis progress curves with purified enzyme. The class given is biochemical.
Assay [4] addresses T2, KPC-2 β-lactamase D179N variant. Kind of assay: stopped-flow hydrolysis progress curves with purified enzyme; timed mass spectrometry. The class given is biochemical.
The target in assay [5] is T1, KPC-2 β-lactamase D179Y variant. Kind of assay: time-based mass spectrometry of acyl-complex ([…]); no turnover in stopped-flow. The class given is binding.

The results in this text go back to article PMC10215400 (Antibiotics, 2023).

SMILES strings stand for the structures.

T1 sequence (Q93LQ9 25-293 D178Y): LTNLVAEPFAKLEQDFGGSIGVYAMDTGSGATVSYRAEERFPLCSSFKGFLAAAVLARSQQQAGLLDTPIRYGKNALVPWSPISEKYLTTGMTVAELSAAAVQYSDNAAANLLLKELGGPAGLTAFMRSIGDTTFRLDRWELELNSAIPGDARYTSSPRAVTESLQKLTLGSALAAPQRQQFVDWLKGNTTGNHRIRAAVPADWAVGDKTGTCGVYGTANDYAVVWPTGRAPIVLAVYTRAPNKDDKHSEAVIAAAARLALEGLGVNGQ
T2 sequence (Q93LQ9 25-293 D178N): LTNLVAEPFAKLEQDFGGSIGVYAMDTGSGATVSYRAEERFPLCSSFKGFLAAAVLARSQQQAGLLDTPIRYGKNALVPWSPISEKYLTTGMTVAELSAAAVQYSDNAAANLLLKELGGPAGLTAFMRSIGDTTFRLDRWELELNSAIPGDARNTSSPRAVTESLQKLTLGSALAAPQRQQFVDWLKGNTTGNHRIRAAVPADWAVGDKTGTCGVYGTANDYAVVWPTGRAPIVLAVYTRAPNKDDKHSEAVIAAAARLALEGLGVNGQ
Chain of KPC-2 β-lactamase (Q93LQ9 25-293 limits assumed): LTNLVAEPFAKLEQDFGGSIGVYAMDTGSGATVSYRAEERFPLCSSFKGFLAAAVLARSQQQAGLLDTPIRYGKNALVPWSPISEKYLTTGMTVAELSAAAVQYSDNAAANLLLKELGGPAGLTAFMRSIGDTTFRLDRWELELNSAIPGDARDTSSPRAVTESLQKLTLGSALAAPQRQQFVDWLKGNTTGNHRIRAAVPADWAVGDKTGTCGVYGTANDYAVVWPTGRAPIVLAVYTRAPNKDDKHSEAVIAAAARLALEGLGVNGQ

For the molecule `O=C(NC1CCNCC1)[C@@H]1CC[C@@H]2CN1C(=O)N2OS(=O)(=O)O` [relebactam], the “time-based mass spectrometry of acyl-complex (1:1)” value in assay [1] is recorded as “relebactam is slower to form an acyl complex with the D179Y variant compared to avibactam”.
Regarding `NC(=O)[C@@H]1CC[C@@H]2CN1C(=O)N2OS(=O)(=O)O` [avibactam], the “time-based mass spectrometry of acyl-complex (1:1)” value in assay [1] is given as “relebactam is slower to form an acyl complex with the D179Y variant compared to avibactam”. Further, the “time-based mass spectrometry (1:1)” value in assay [2] was “Relebactam and avibactam behaved similarly vs. the D179N variant”.
Take `C[C@@H](O)[C@H]1C(=O)N2C(C(=O)O)=C(SCCN=CN)C[C@H]12` [imipenem]: in assay [3], the “stopped-flow hydrolysis progress curves with purified enzyme” value is “KPC-2 (blue line) and the D179N variant (yellow line) both hydrolyzed imipenem”. The “stopped-flow hydrolysis progress curves with purified enzyme; timed mass spectro” value in assay [4] is “KPC-2 (blue line) and the D179N variant (yellow line) both hydrolyzed imipenem”. Besides, the “time-based mass spectrometry of acyl-complex (1:1); no turnover in stopped-flow” value in assay [5] is “acyl-complexes with imipenem and ceftazidime with the D179N variant was captured less often compared to the D179Y variant”.
